This passage reports cryo-EM structure and stoichiometry N results from publication PMC9949808 (eLife, 2023).

For one experiment, the target named is T1, PSII reaction centre (Dunaliella salina, UniProt A0A1C8XRK9+D0FY08).
T1 construct: gene psbA; native D1/D2 heterodimer in PSII C2S2 supercomplex purified from D. salina
Nature of the experiment: cryo-EM structure. It counts as binding. As to conditions: type a inferred.

In experiment [1] the target is photosystem II (PSII) core, one of the two cores of the dimer (Dunaliella salina). The experiment in a line: cryo-EM structure; native PSII purified from D. salina thylakoids (1% α-DM, sucrose gradient), in 25 mM MES pH 6.5, 1 mM CaCl2, 5 mM MgCl2, 0.1% α-DM; unstacked particles: C2S2 compact 2.43 Å, C2S2 stretched 2.62 Å, C2S 3.61 Å.

As to `C=Cc1c(C)c2cc3nc(c4c5[nH]c(cc6nc(cc1[nH]2)C(C)=C6CC)c(C)c5C(=O)[C@@H]4C(=O)OC)[C@@H](CCC(=O)OC/C=C(\C)CCC[C@H](C)CCC[C@H](C)CCCC(C)C)[C@@H]3C` [pheophytin], the cryo-EM structure entry on PSII reaction centre was “PSII reaction centre chlorophylls (Chls), pheophytins, and quinone”.

For orientation: stoichiometry N means the number of molecules, sites or subunits per partner or assembly. Turning to “photosystem II (PSII) core, one of the two cores of the dimer (complex)”, the stoichiometry N in experiment [1] amounted to 2.
